Assay results reported in ChEMBL document CHEMBL1157780, “Synthesis, chiral high performance liquid chromatographic resolution and enantiospecific activity of a potent new geranylgeranyl transferase inhibitor, 2-hydroxy-3-imidazo[1,2-a]pyridin-3-yl-2-phosphonopropionic acid” (J Med Chem, 2010).
The source made the active and inactive calls. No cut-off for these calls is given here.

Experiments:
[1] = target: T1, Farnesyl pyrophosphate synthase (Homo sapiens, UniProt P14324); assay: Inhibition of human FPPS after 10 mins using [14C]IPP as substrate by liquid scintillation counting
T1 sequence (P14324 whole entry): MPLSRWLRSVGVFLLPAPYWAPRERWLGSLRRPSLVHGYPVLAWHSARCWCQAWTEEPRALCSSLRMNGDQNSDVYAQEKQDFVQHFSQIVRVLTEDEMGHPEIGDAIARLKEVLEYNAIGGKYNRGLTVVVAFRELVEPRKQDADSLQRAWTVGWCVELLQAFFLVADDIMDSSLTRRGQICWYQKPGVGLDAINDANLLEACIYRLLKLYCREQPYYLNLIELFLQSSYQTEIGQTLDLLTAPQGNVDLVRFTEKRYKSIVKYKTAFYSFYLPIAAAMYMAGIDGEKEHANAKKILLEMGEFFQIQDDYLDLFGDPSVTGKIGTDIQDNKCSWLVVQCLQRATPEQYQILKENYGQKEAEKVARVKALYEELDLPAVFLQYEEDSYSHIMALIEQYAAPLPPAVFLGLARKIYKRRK

J774 [2] = assay: Cytotoxicity against mouse J774 cells assessed as cell viability after 48 hrs by alamar blue assay; format: functional, cell-based
[3] = Inhibition of recombinant RGGT assessed as incorporation of [3H]GGPP into His-tagged canine rab1a after 30 mins
[4] = Inhibition of recombinant RGGT assessed as incorporation of [3H]GGPP into His-tagged canine rab1a after 20 mins
[5] = Inhibition of GGTase1 assessed as incorporation of [3H]GGPP into His-tagged canine rab1a after 30 mins
[6] = Inhibition of recombinant RGGT by uncompetitive inhibition based Lineweaver-Burke plot using Rab1a as substrate
Osteoclast = assay: Antiresorptive activity in rabbit osteoclasts assessed as number of actin rings after 48 hrs using TRITC-phelloidin stain relative to control; format: functional, cell-based; conditions: Oryctolagus cuniculus
Rattus norvegicus = organism: Rattus norvegicus; assay: Antiresorptive activity in Schenk growing rat model assessed as inhibition of bone resorption; format: functional
J774 [7] = assay: Inhibition of RGGT-mediated Rab11 prenylation in mouse J774 cells after 24 hrs by Western blot analysis; format: cell-based
J774 [8] = assay: Inhibition of RGGT-mediated Rap1A prenylation in mouse J774 cells after 24 hrs by Western blot analysis; format: cell-based
[9] = target: T2, Geranylgeranyl pyrophosphate synthase (Homo sapiens) (UniProt O95749); assay: Inhibition of GGPPS at 1mM after 10 mins using [14C]IPP as substrate by liquid scintillation counting
T2 sequence (whole entry): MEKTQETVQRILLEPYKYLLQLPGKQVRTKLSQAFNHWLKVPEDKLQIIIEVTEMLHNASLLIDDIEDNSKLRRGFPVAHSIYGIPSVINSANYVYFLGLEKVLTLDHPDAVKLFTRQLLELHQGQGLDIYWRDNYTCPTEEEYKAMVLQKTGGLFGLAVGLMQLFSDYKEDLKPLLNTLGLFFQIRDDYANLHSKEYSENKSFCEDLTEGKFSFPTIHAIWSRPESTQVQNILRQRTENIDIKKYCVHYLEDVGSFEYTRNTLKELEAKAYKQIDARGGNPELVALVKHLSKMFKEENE

[10] = target: Protein farnesyltransferase/geranylgeranyltransferase type-1 subunit alpha (Homo sapiens) (UniProt P49354); assay: Inhibition of GGTase1 assessed as incorporation of [3H]GGPP into His-tagged canine rab1a at 1 mM after 30 mins
[11] = target: T3, Geranylgeranyl transferase type-2 subunit alpha (Homo sapiens) (UniProt Q92696); assay: Inhibition of rabbit osteoclast rab11 prenylation after 24 hrs by Western blot analysis; conditions: Oryctolagus cuniculus; target entry is the homologue from another species
T3 sequence (whole entry): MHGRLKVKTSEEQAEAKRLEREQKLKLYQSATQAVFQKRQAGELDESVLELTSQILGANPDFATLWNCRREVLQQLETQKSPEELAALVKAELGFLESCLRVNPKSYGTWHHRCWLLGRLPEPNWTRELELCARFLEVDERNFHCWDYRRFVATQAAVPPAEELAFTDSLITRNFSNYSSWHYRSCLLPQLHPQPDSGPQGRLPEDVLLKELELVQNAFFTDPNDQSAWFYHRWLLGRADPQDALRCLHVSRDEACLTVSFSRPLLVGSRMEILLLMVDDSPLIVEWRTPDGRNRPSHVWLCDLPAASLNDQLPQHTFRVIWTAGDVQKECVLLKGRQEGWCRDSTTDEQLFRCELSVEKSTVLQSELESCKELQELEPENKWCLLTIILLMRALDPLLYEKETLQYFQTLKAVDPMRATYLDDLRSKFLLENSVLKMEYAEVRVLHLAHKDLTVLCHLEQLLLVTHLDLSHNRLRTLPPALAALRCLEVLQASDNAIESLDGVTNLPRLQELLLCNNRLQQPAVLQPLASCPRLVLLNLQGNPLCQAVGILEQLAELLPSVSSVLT

[12] = target: T4, Farnesyl pyrophosphate synthase (Homo sapiens) (UniProt P14324); assay: Inhibition of human FPPS at 10 uM after 10 mins using [14C]IPP as substrate
T4 sequence (whole entry): T1 sequence (P14324 whole entry)

O=C(O)C(O)(Cc1cccnc1)P(=O)(O)O (racemic) [listing 1 of 2 here]
IC50 [1]: > 1000 µM | IC50 (J774 [2]; Mus musculus, J774, 48 h): 2800 µM | IC50 [3]: 51.7 µM | IC50 [4]: 32 µM | IC50 [5]: > 2000 µM | Ki [6]: 33.6 µM | IC50 (Osteoclast): 970 µM | LED (Rattus norvegicus): 12 mg/kg

O=C(O)C(O)(Cc1cnc2ccccn12)P(=O)(O)O (single isomer, unassigned; enantiomer 2)
LED (J774 [7]): 50 µM | LED (J774 [8]): 4000 µM | Activity [9]: inactive | Activity [10]: inactive

O=C(O)C(O)(Cc1cccnc1)P(=O)(O)O (racemic) [listing 2 of 2 here]
LED (J774 [7]): 100 µM | Activity [11]: 200 µM | Activity [12]: inactive

O=C(O)C(O)(Cc1cnc2ccccn12)P(=O)(O)O (single isomer, unassigned; (+)) [(2-HYDROXY-3-IMIDAZO[1,2-A]PYRIDIN-3-YL-2-PHOSPHONOPROPIONIC ACID (ENANTIONMERS)]
IC50 (J774 [2]; j774): 31 µM | IC50 [3]: 1.1 µM | IC50 [4]: 1.3 µM | IC50 [5]: > 800 µM | Ki [6]: 0.211 µM

O=C(O)C(O)(Cc1cccnc1)P(=O)(O)O (single isomer, unassigned; enantiomer 2) [listing 1 of 2 here]
LED (J774 [7]): 250 µM

O=C(O)C(O)(Cc1cccnc1)P(=O)(O)O (single isomer, unassigned; enantiomer 2) [listing 2 of 2 here]
IC50 [3]: 150 µM

O=C(O)C(O)(Cc1cccnc1)P(=O)(O)O (single isomer, unassigned; enantiomer 1) [listing 1 of 2 here]
IC50 [3]: 39 µM

O=C(O)C(O)(Cc1cccnc1)P(=O)(O)O (single isomer, unassigned; enantiomer 1) [listing 2 of 2 here]
LED (J774 [7]): 63 µM

O=C(O)C(O)(Cc1cnc2ccccn12)P(=O)(O)O (racemic)
LED (J774 [7]): 3 µM | LED (J774 [8]): > 100 µM | Activity [11]: 12.5 µM | Activity [12]: inactive

O=P(O)(O)C(O)(Cc1cccnc1)P(=O)(O)O
LED (J774 [7]): 12 µM | LED (J774 [8]): 12 µM

O=C(O)C(O)(Cc1cnc2ccccn12)P(=O)(O)O (single isomer, unassigned; enantiomer 2) [(2-HYDROXY-3-IMIDAZO[1,2-A]PYRIDIN-3-YL-2-PHOSPHONOPROPIONIC ACID (ENANTIONMERS)]
IC50 (J774 [2]; j774): > 800 µM | IC50 [3]: 67.7 µM

O=P(O)(O)C(O)(Cc1cnc2ccccn12)P(=O)(O)O [MINODRONIC ACID]
IC50 (J774 [2]; Mus musculus, J774, 48 h): 3 µM | IC50 [3]: > 1000 µM | LED (J774 [7]): 3 µM | LED (J774 [8]): 3 µM

O=C(O)C(O)(Cc1cnc2ccccn12)P(=O)(O)O (single isomer, unassigned; (+))
LED (J774 [7]): 3 µM | LED (J774 [8]): 100 µM | Activity [9]: inactive | Activity [10]: inactive

O=C(O)C(O)(Cc1cnc2ccccn12)P(=O)(O)O (racemic) [(2-HYDROXY-3-IMIDAZO[1,2-A]PYRIDIN-3-YL-2-PHOSPHONOPROPIONIC ACID (ENANTIONMERS)]
IC50 [1]: > 10 µM | IC50 (J774 [2]; j774): 47 µM | IC50 [3]: 12.5 µM | IC50 (Osteoclast): 330 µM | LED (Rattus norvegicus): 2.8 mg/kg
